From PubChem BioAssay (NCI)
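Values below derive from 48-hour exposures of cells grown in 96-well plates, with endpoints linearly interpolated between the two concentrations bracketing the appropriate inhibition level. GI50 = concentration required for 50% inhibition of growth. The concentration for full growth arrest is given as TGI.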

Key:
Test in all cases: DTP human tumour cell line panel, 48 h
TK-10 renal = test system: TK-10 renal
OVCAR-3 ovarian = test system: OVCAR-3 ovarian
SK-MEL-28 melanoma = test system: SK-MEL-28 melanoma
SF-268 CNS = test system: SF-268 CNS
SN12C renal = test system: SN12C renal
UO-31 renal = test system: UO-31 renal
K-562 leukemia = test system: K-562 leukemia
MALME-3M melanoma = test system: MALME-3M melanoma
RXF 393 renal = test system: RXF 393 renal
CCRF-CEM leukemia = test system: CCRF-CEM leukemia

COC(=O)c1cc(OCc2cc(OCc3ccc(Br)cc3)cc(OCc3ccc(Br)cc3)c2)cc(OCc2cc(OCc3ccc(Br)cc3)cc(OCc3ccc(Br)cc3)c2)c1
TGI (TK-10 renal): > 100 µM | TGI (OVCAR-3 ovarian): > 100 µM | TGI (SK-MEL-28 melanoma): > 100 µM | TGI (SF-268 CNS): > 100 µM | TGI (SN12C renal): > 100 µM | TGI (UO-31 renal): > 100 µM | TGI (K-562 leukemia): > 100 µM | TGI (MALME-3M melanoma): > 100 µM

O=C(O)c1cc2sc(C(=O)O)cc2s1
TGI (TK-10 renal): > 100 µM | TGI (RXF 393 renal): > 100 µM | TGI (OVCAR-3 ovarian): > 100 µM | TGI (SF-268 CNS): > 100 µM | TGI (SN12C renal): > 100 µM | TGI (CCRF-CEM leukemia): > 100 µM | TGI (K-562 leukemia): > 100 µM | TGI (MALME-3M melanoma): > 100 µM

[B]C(=O)NC(CC(C)C)C(=O)NC1c2ccsc2C(=O)C1O (centres undefined) (tested in a mixture with another compound)
TGI (TK-10 renal): > 100 µM | TGI (RXF 393 renal): > 100 µM | TGI (SK-MEL-28 melanoma): > 100 µM | TGI (SF-268 CNS): > 100 µM | TGI (SN12C renal): > 100 µM | TGI (UO-31 renal): > 100 µM | TGI (CCRF-CEM leukemia): > 100 µM | TGI (K-562 leukemia): > 100 µM | TGI (MALME-3M melanoma): > 100 µM

COc1ccc(/C=C2/C(=O)C(c3ccccc3)N(c3ccccc3)C2=O)cc1OC (centres undefined)
TGI (TK-10 renal): > 10 µM | TGI (RXF 393 renal): > 10 µM | TGI (OVCAR-3 ovarian): > 10 µM | TGI (SK-MEL-28 melanoma): > 10 µM | TGI (SF-268 CNS): > 10 µM | TGI (SN12C renal): > 10 µM | TGI (UO-31 renal): > 10 µM | TGI (CCRF-CEM leukemia): > 10 µM | TGI (MALME-3M melanoma): > 10 µM

COc1ccc(/C=C/C(=O)N[C@@H]2C(=O)N3[C@@H]2SC(C)(C)[C@@H]3C(=O)O)cc1OC
TGI (TK-10 renal): > 100 µM | TGI (RXF 393 renal): > 100 µM | TGI (OVCAR-3 ovarian): > 100 µM | TGI (SK-MEL-28 melanoma): > 100 µM | TGI (SF-268 CNS): > 100 µM | TGI (SN12C renal): > 100 µM | TGI (UO-31 renal): > 100 µM | TGI (CCRF-CEM leukemia): > 100 µM | TGI (K-562 leukemia): > 100 µM

O=c1oc2ccc([N+](=O)[O-])cc2cc1-c1csc(-c2ccccc2)n1
TGI (TK-10 renal): > 100 µM | TGI (RXF 393 renal): > 100 µM | TGI (SK-MEL-28 melanoma): > 100 µM | TGI (SF-268 CNS): > 100 µM | TGI (SN12C renal): > 100 µM | TGI (UO-31 renal): > 100 µM | TGI (CCRF-CEM leukemia): > 100 µM | TGI (K-562 leukemia): > 100 µM | TGI (MALME-3M melanoma): > 100 µM

Cc1cccc2c1CC1(Cc3c(C)cccc3C1=O)C2=O
TGI (TK-10 renal): > 100 µM | TGI (RXF 393 renal): > 100 µM | TGI (OVCAR-3 ovarian): > 100 µM | TGI (SK-MEL-28 melanoma): > 100 µM | TGI (SF-268 CNS): > 100 µM | TGI (UO-31 renal): > 100 µM | TGI (CCRF-CEM leukemia): > 100 µM | TGI (K-562 leukemia): > 100 µM | TGI (MALME-3M melanoma): > 100 µM

CC(C)[Si](CC1=CCCCC12C(=O)N(COCC[Si](C)(C)C)c1ccccc12)(C(C)C)C(C)C (centres undefined)
TGI (TK-10 renal): > 100 µM | TGI (RXF 393 renal): 54.2 µM | TGI (OVCAR-3 ovarian): > 100 µM | TGI (SK-MEL-28 melanoma): > 100 µM | TGI (SF-268 CNS): > 100 µM | TGI (UO-31 renal): > 100 µM | TGI (CCRF-CEM leukemia): 36.6 µM | TGI (K-562 leukemia): > 100 µM | TGI (MALME-3M melanoma): > 100 µM

COc1ccc(C2=Nn3c(C)nnc3S/C2=C\c2ccc(-c3ccc([N+](=O)[O-])cc3)o2)cc1
TGI (TK-10 renal): 34.3 µM | TGI (RXF 393 renal): 22.8 µM | TGI (OVCAR-3 ovarian): 33 µM | TGI (SF-268 CNS): 47.1 µM | TGI (SN12C renal): 33.6 µM | TGI (UO-31 renal): 29.8 µM | TGI (CCRF-CEM leukemia): > 100 µM | TGI (K-562 leukemia): 17.7 µM | TGI (MALME-3M melanoma): 86.3 µM

COc1ccc(-c2cc(-c3ccncc3)nc(N)c2-c2ccc(F)cc2)cc1
TGI (TK-10 renal): > 100 µM | TGI (RXF 393 renal): 68.6 µM | TGI (OVCAR-3 ovarian): > 100 µM | TGI (SF-268 CNS): > 100 µM | TGI (UO-31 renal): > 100 µM | TGI (CCRF-CEM leukemia): > 100 µM | TGI (K-562 leukemia): > 100 µM | TGI (MALME-3M melanoma): > 100 µM

O=[N+]([O-])c1ccc(N/N=C\c2ccc(O)cc2O)nc1
GI50 (TK-10 renal): 5.09 µM | TGI (TK-10 renal): > 100 µM | GI50 (OVCAR-3 ovarian): 0.398 µM | TGI (OVCAR-3 ovarian): 42.1 µM | GI50 (SK-MEL-28 melanoma): 5.03 µM | TGI (SK-MEL-28 melanoma): > 100 µM | GI50 (SF-268 CNS): 1.21 µM | TGI (SF-268 CNS): > 100 µM | GI50 (SN12C renal): 3.12 µM | TGI (SN12C renal): > 100 µM | GI50 (MALME-3M melanoma): 2.61 µM | TGI (MALME-3M melanoma): > 100 µM
